Experimental data reported in patent publication US11203615B2, “Cancer treatment drug” (NATIONAL UNIVERSITY CORPORATION HOKKAIDO UNIVERSITY, priority 2017, dated 2021).
One block for each molecule: values may come before it. Residues, ends and D or L forms follow the SMILES beside them.

Assays:
C16orf74 protein dimer [1] = target: T1, C16orf74 protein dimer (Homo sapiens, UniProt Q96GX8); experiment: Inhibition of dimer formation of C16orf74 protein, pull-down assay in cotransfected HEK293T cells; assay type: cell-based; conditions: 40 μM peptide, 24 hours
T1 sequence (Q96GX8 whole entry): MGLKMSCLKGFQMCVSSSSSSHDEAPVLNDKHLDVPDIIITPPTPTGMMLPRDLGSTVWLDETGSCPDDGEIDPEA
Procedure: Pull-down assay was used for this verification. HEK293T cells were cotransfected with a vector to express a protein of Flag-tagged C16orf74 protein (pCAGGS-C16orf74-3×Flag) and a vector to express a protein of HA-tagged C16orf74 protein (pCAGGS-C16orf74-HA), and 24 hours thereafter a cell lysate was obtained and immunoprecipitation was carried out with agarose beads with an HA antibody attached thereto. The resulting immunoprecipitate was subjected to electrophoresis, and blotted with a Flag antibody. Experiment was conducted in three parallel systems. In the figure, MOCK represents a case that empty vectors of pCAGGS were provided with a Flag tag and an HA tag and HEK293T cells were cotransfected therewith. A band of the Flag-tagged C16orf74 protein was found at an intended level ([…]).
HEK293T cells were transfected with pCAGGS-C16orf74-3×Flag and pCAGGS-C16orf74-HA, and cultured in the presence and absence of 40 μM of the peptide RRRRRRRRR-GGG-MGLKMSCLKGFQMCV (SEQ ID NO: 6) for 24 hours, and thereafter a band of the dimer was detected in the same manner as descried in (1).

[2] = test system: Human pancreatic cancer cells (PK-9); experiment: Tumor growth in nude mice with PK-9 cells transplanted on the back, intraperitoneal administration; assay type: in vivo, nude mouse; conditions: i.p. five times per week, day 7 to day 35 after transplantation
Procedure: Human pancreatic cancer cells (PK-9) were transplanted to the back of each nude mouse (Balb/cA Jcl nu/nu mice, female, distributor: CLEA Japan, Inc.). The peptide of the present invention RRRRRRRRRRR-GGG-MGLKMSCLKGFQMCV (SEQ ID NO: 4), the peptide RRRRRRRRRRR-GGG-MGLKMAAAKGFQAAA (SEQ ID NO: 8), or PBS was intraperitoneally administered five times per week from day 7 to day 35 after the transplantation. During this period, body weight and tumor volume of the animals were measured, and fluorescence images were taken. On day 35 after the transplantation, tumor was resected, and the weight was measured. […] The mean tumor weight was approximately 50 mg for the group with administration of the peptide of the present invention (represented as DB in FIG. 6), and, by contrast, approximately 100 mg to 110 mg for the other two groups.

PK-9 cells = experiment: Tumor growth in nude mice with subcutaneously injected PK-9 cells, peritumoral subcutaneous injection; assay type: in vivo; conditions: 10 mg/kg/mouse s.c. near tumor five times per week, 3 weeks
Procedure: PK-9 cells were injected into the back of each nude mouse (Balb/cA Jcl nu/nu mice, female, distributor: CLEA Japan, Inc.). Two weeks after the injection, the peptide of the present invention RRRRRRRRRRR-GGG-MGLKMSCLKGFQMCV (SEQ ID NO: 4), the peptide RRRRRRRRRRR-GGG-MGLKMAAAKGFQAAA (SEQ ID NO: 8), or PBS was injected into the subcutaneous tissue in the vicinity of tumor five times per week (10 mg/kg/mouse). The administration period was 3 weeks. At the end of the administration period, tumor was resected and the tumor weight was measured. […] The mean tumor weight of the group with administration of the peptide of the present invention (SEQ ID NO: 4) was approximately 250 mg (group 11R-DB in FIG. 8).

[3] = test system: PK-9 cells expressing luciferase (PK-9-td Tomato-luc2); experiment: Tumor survival and nodulation in nude mice with peritoneally disseminated PK-9-td Tomato-luc2 cells; assay type: in vivo; conditions: 1 mg/kg/mouse five times per week, day 0 to day 35; imaging days 3-35
Procedure: PK-9 cells expressing luciferase (PK-9-td Tomato-luc2) were intraperitoneally injected into each nude mouse (Balb/cA Jcl nu/nu mice, female, distributor: CLEA Japan, Inc.). During a period from the day of the peritoneal dissemination to day 35, the peptide of the present invention RRRRRRRRRRR-GGG-MGLKMSCLKGFQMCV (SEQ ID NO: 4), the peptide RRRRRRRRRRR-GGG-MGLKMAAAKGFQAAA (SEQ ID NO: 8), or PBS was injected into the subcutaneous tissue in the vicinity of tumor five times per week (1 mg/kg/mouse). On days 3, 7, 14, 21, 28, and 35 after the peritoneal dissemination, tumor was imaged. The number of nodules was counted at the end of the peptide administration period.

C16orf74 protein dimer [4] = target: T1, C16orf74 protein dimer; experiment: Inhibition of dimer formation of C16orf74 protein in human pancreatic cancer cells and NHDFs (FIG. 3); assay type: cell-based; design: PK-1 and PK-9 (C16orf14 high expression) are compared to Panc1 and Miapaca2 (low expression); endogenous in cells; host or cells: PK-1, PK-9, Panc-1, Miapaca-2, NHDF
Procedure: The same experiment as the above (3) was conducted by using the peptide RRRRRRRRRRR-GGG-MGLKMSCLKGFQMCV (SEQ ID NO: 4) (represented as 11R-C16orf74-DB in FIG. 3(a)), the peptide RRRRRRRRRRR-GGG-MGLKMSALKGFQMAV (SEQ ID NO: 7) (represented as 11R-C16orf74 C7A-C14A in FIG. 3(b)), and the peptide RRRRRRRRRRR-GGG-MGLKMAAAKGFQAAA (SEQ ID NO: 8) (represented as 11R-C16orf74-6-8A-13-15A in FIG. 3(c)) with different concentrations to examine inhibition of the dimer formation of C16orf74 protein. For the cells, four types of human pancreatic cancer cells (PK-1, PK-9, Panc-1, Miapaca-2) and normal human dermal fibroblasts (NHDFs) were used. The results are shown in FIGS. 3(a), 3(b), and 3(c), which are 24 hour WST assays in which PK-1 and PK-9 (C16orf14 high expression) are compared to Panc1 and Miapaca2 (low expression). A p-value of p<0.05 was obtained at 30 μM.

inhibition of dimer formation of C16orf74 protein (band of the dimer) (C16orf74 protein dimer [1]): the dimer formation was inhibited
Molecule: RRRRRRRRR-GGG-MGLKMSCLKGFQMCV (RRRRRRRRRGGGMGLKMSCLKGFQMCV; fusion peptide) [SEQ ID NO: 6, C16orf74 N-terminal 15 amino acids bonded to 9-arginine signal via a GGG tag]

Molecule: RRRRRRRRRRR-GGG-MGLKMAAAKGFQAAA (RRRRRRRRRRRGGGMGLKMAAAKGFQAAA; fusion peptide) [SEQ ID NO: 8, control peptide, cysteines 7 and 14 and their neighbouring residues converted into alanine]
change over time in tumor fluorescence intensity [2]: exhibited increase in fluorescence intensity
course of tumor volume (PK-9 cells): the tumor volume increased
survival of tumor cells (tumor imaging) [3]: The survival of tumor cells was not suppressed
inhibition of the dimer formation (C16orf74 protein dimer [4]; any of the cells (PK-1, PK-9, Panc-1, Miapaca-2, NHDFs)): no inhibition of the dimer formation was found

Molecule: RRRRRRRRRRR-GGG-MGLKMSALKGFQMAV (RRRRRRRRRRRGGGMGLKMSALKGFQMAV; fusion peptide) [SEQ ID NO: 7, control peptide, cysteine residues at 7th and 14th positions converted into alanine]
inhibition of the dimer formation (C16orf74 protein dimer [4]; PK-1 and PK-9 cells): the inhibition was weaker than in using 11R-C16orf74-DB
inhibition of the dimer formation (C16orf74 protein dimer [4]; Panc1, Miapaca2 and NHDFs): Almost no inhibition of the dimer formation was found

inhibition at 40 µM (C16orf74 protein dimer [4]; MIA PaCa-2, Miapaca2 cells): ≥ 60%
inhibition at 40 µM (C16orf74 protein dimer [4]; PANC-1, Panc1 cells): ≥ 60%
inhibition at 30 µM (C16orf74 protein dimer [4]; PK9, PK-9 cells): ~60%
inhibition at 30 µM (C16orf74 protein dimer [4]; PK-1 cells): ~60%
Molecule: CSCC[C@H](NC(=O)CNC(=O)CNC(=O)CNC(=O)[C@H](CCCNC(=N)N)NC(=O)[C@H](CCCNC(=N)N)NC(=O)[C@H](CCCNC(=N)N)NC(=O)[C@H](CCCNC(=N)N)NC(=O)[C@H](CCCNC(=N)N)NC(=O)[C@H](CCCNC(=N)N)NC(=O)[C@H](CCCNC(=N)N)NC(=O)[C@H](CCCNC(=N)N)NC(=O)[C@H](CCCNC(=N)N)NC(=O)[C@H](CCCNC(=N)N)NC(=O)[C@@H](N)CCCNC(=N)N)C(=O)NCC(=O)N[C@@H](CC(C)C)C(=O)N[C@@H](CCCCN)C(=O)N[C@@H](CCSC)C(=O)N[C@@H](CO)C(=O)N[C@@H](CS)C(=O)N[C@@H](CC(C)C)C(=O)N[C@@H](CCCCN)C(=O)NCC(=O)N[C@@H](Cc1ccccc1)C(=O)N[C@@H](CCC(N)=O)C(=O)N[C@@H](CCSC)C(=O)N[C@@H](CS)C(=O)N[C@H](C(=O)O)C(C)C [SEQ ID NO: 4, RRRRRRRRRRR-GGG-MGLKMSCLKGFQMCV] (H-RRRRRRRRRRRGGGMGLKMSCLKGFQMCV-OH)
body weight of the animals [2]: exhibited a higher increasing tendency than the other administration groups
